The assay relates to nude mice, HT29 intrarenal xenograft, tumor weight T/C. The assay can be described thus: NCI In Vivo Anticancer Drug Screen. Data for tumor model HT29;CX-1 Human Adenocarcinoma (MER+) (intrarenal inoculation) in NU/NU Swiss (nude) mice. As to conditions: endpoint: mean tumor weight change, higher = larger tumour. Put shortly:
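Readout: treated/vehicle-control ratio of the measured endpoint (tumor size or survival) in transplanted-tumor mice.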

Setting [1] is: dose: 12.5 mg/kg/injection, schedule: Q01DX010 (sc), vehicle: saline.
Setting [2] is: dose: 25.0 mg/kg/injection, schedule: Q01DX010 (sc), vehicle: saline.
Where [3] appears, read: dose: 50.0 mg/kg/injection, schedule: Q01DX010 (sc), vehicle: saline.
Setting [4] is: dose: 50.0 mg/kg/injection, schedule: Q04DX004 (sc), vehicle: saline with Tween-80.
[5] abbreviates: dose: 100.0 mg/kg/injection, schedule: Q04DX004 (sc), vehicle: saline with Tween-80.
The mark [6] stands for this setting: dose: 200.0 mg/kg/injection, schedule: Q04DX004 (sc), vehicle: saline with Tween-80.
Where [7] appears, read: dose: 400.0 mg/kg/injection, schedule: Q04DX004 (sc), vehicle: saline with Tween-80.
Where [8] appears, read: dose: 200.0 mg/kg/injection, schedule: Q04DX004 (sc), vehicle: Klucel (hydroxypropylcellulose) (HPC).
Setting [9] is: dose: 300.0 mg/kg/injection, schedule: Q04DX004 (sc), vehicle: saline with Tween-80.
Setting [10] is: dose: 600.0 mg/kg/injection, schedule: Q04DX004 (sc), vehicle: saline with Tween-80.

Values joined by “and” are separate entries in the source; they are usually repeats but may differ in a detail not shown here. Identical values can stand only once. Results filed as inconclusive are left out.

Turning to `NC(=O)c1csc(C2OC(CO)C(O)C2O)n1` (stereo not given), for the setting “dose: 125.0 mg/kg/injection, schedule: Q04DX004 (sc), vehicle: water”, the T/C was 119 % of control.
Consider `CS(=O)(=O)OCCN(CCOS(C)(=O)=O)c1ccc(C=O)cc1`, for which the T/C is 100 % of control under setting [1], 90 % of control under setting [2] and 37 % of control under setting [3].
Take `CSc1ccc2c(c1)C(N1CCN(C)CC1)Cc1ccccc1S2` (stereo not given): the T/C is 80 % of control (dose: 12.5 mg/kg/injection, schedule: Q04DX004 (sc), vehicle: saline with Tween-80); 98 % of control (dose: 25.0 mg/kg/injection, schedule: Q04DX004 (sc), vehicle: saline with Tween-80); 124 % of control under setting [4].
Consider `O=S(=O)(O)O.[NH-]C1CCCCC1[NH-].[Pt+2]` (stereo not given), for which the T/C (dose: 0.62 mg/kg/injection, schedule: Q01DX010 (sc), vehicle: dextrose) is 21 % of control.
As to `COc1cc2cc3cc4cc(OC)c(OC)cc4c(C)[n+]3cc2cc1OC` (tested in a mixture with another compound), the T/C is, setting by setting: (dose: 200.0 mg/kg/injection, schedule: Q04DX004 (sc), vehicle: suspension in saline) 118 % of control; (dose: 400.0 mg/kg/injection, schedule: Q04DX004 (sc), vehicle: suspension in saline) 80 % of control; (dose: 800.0 mg/kg/injection, schedule: Q04DX004 (sc), vehicle: suspension in saline) 98 % of control.
For `O.O.[NH-]C1CCCCC1[NH-].[Pt+2]` (stereo not given), the T/C (dose: 10.0 mg/kg/injection, schedule: Q01DX010 (sc), vehicle: saline) is 74 % of control and the T/C (dose: 20.0 mg/kg/injection, schedule: Q01DX010 (sc), vehicle: saline) is 54 % of control.
For `COc1ccc(C(=O)/C(Br)=C/C(=O)O)cc1`, the T/C was 73 % of control under setting [1], 122 % of control under setting [2] and 56 % of control under setting [3].
With `CC(=O)OC1=NC(C)c2c1cc(OC(C)=O)[nH]c2=O` (stereo not given), the T/C is, setting by setting: (dose: 225.0 mg/kg/injection, schedule: Q04DX004 (sc), vehicle: Klucel (hydroxypropylcellulose) (HPC)) 108 % of control; (dose: 900.0 mg/kg/injection, schedule: Q04DX004 (sc), vehicle: Klucel (hydroxypropylcellulose) (HPC)) 58 % of control.
As for `CN(N=O)C(N)=O`, the T/C was 119 % of control (dose: 12.5 mg/kg/injection, schedule: Q01DX010 (sc), vehicle: saline with Tween-80); 41 % of control (dose: 25.0 mg/kg/injection, schedule: Q01DX010 (sc), vehicle: saline with Tween-80); 101 % of control (dose: 100.0 mg/kg/injection, schedule: Q04DX004 (sc), vehicle: suspension in saline).
For the compound `Nc1cc2c3c(cccc3c1)C(=O)N(CCN1CCCC1)C2=O`, the T/C reads like this: under setting [4], 170 % of control; under setting [5], 202 % of control; under setting [6], 233 % of control; under setting [7], 177 % of control.
With `CSc1nc(=O)[nH]nc1SCc1ccccc1`, the T/C is, setting by setting: under setting [8], 76 % of control; (dose: 400.0 mg/kg/injection, schedule: Q04DX004 (sc), vehicle: Klucel (hydroxypropylcellulose) (HPC)) 56 % of control; (dose: 800.0 mg/kg/injection, schedule: Q04DX004 (sc), vehicle: Klucel (hydroxypropylcellulose) (HPC)) 90 % of control.
Consider `C1OCN2CSCC12` (stereo not given), for which the T/C was 39 % of control under setting [5], 80 % of control under setting [6] and 46 % of control under setting [7].
Consider `Cc1c(N)nc([C@H](CC(N)=O)NC[C@H](N)C(N)=O)nc1C(=O)N[C@H](C(=O)N[C@H](C)[C@@H](O)CC(=O)N[C@H](C(=O)NC(O[C@@H]1O[C@@H](C)[C@@H](N)[C@@H](O)[C@H]1O)C(O)c1nc(-c2nc(C(=O)NCCCCN)cs2)cs1)[C@@H](C)O)[C@@H](O[C@@H]1O[C@@H](CO)[C@@H](O)[C@H](O)[C@@H]1O[C@H]1O[C@H](CO)[C@@H](O)[C@H](OC(N)=O)[C@@H]1O)c1c[nH]cn1` (stereo not given in full), for which the T/C is, setting by setting: (dose: 4.0 mg/kg/injection, schedule: Q04DX004 (sc), vehicle: saline) 104 % of control; (dose: 8.0 mg/kg/injection, schedule: Q04DX004 (sc), vehicle: saline) 68 % of control; (dose: 16.0 mg/kg/injection, schedule: Q04DX004 (sc), vehicle: saline) 73 % of control; (dose: 32.0 mg/kg/injection, schedule: Q04DX004 (sc), vehicle: saline) 28 % of control.
As to `COC(=O)[C@@]12OC[C@]34[C@H]([C@@H](O)[C@@H]1O)[C@@]1(C)CC(=O)C(O)=C(C)[C@@H]1C[C@H]3OC(=O)[C@H](OC(=O)/C=C(\C)C(C)C)[C@@H]24`, the T/C (dose: 0.25 mg/kg/injection, schedule: Q04DX004 (sc), vehicle: saline + alcohol) was 67 % of control; the T/C (dose: 0.5 mg/kg/injection, schedule: Q04DX004 (sc), vehicle: saline with Tween-80) is 83 % of control; the T/C (dose: 1.0 mg/kg/injection, schedule: Q04DX004 (sc), vehicle: saline + alcohol) is 49 % of control and 62 % of control; the T/C (dose: 1.0 mg/kg/injection, schedule: Q04DX004 (sc), vehicle: saline with Tween-80) was 89 % of control; the T/C (dose: 2.0 mg/kg/injection, schedule: Q04DX004 (sc), vehicle: saline + alcohol) is 53 % of control and 65 % of control; the T/C (dose: 4.0 mg/kg/injection, schedule: Q04DX004 (sc), vehicle: saline + alcohol) is 72 % of control.
With `CC1(C)OC1CS(=O)c1ccccc1` (stereo not given), the T/C by setting is: under setting [6], 61 % of control; under setting [7], 117 % of control; (dose: 800.0 mg/kg/injection, schedule: Q04DX004 (sc), vehicle: saline with Tween-80) 94 % of control.
For the compound `Cc1cc2nc3[nH]c4ccccc4c3nc2cc1C`, the T/C reads like this: (dose: 100.0 mg/kg/injection, schedule: Q01DX010 (sc), vehicle: saline) 46 % of control; (dose: 200.0 mg/kg/injection, schedule: Q01DX010 (sc), vehicle: saline) 98 % of control; (dose: 400.0 mg/kg/injection, schedule: Q01DX010 (sc), vehicle: saline) 82 % of control; (dose: 800.0 mg/kg/injection, schedule: Q01DX010 (sc), vehicle: saline) 84 % of control.
For the compound `CCOC(OCC)C(=O)OCC(=O)[C@]1(O)Cc2c(O)c3c(c(O)c2[C@@H](OC2CC(N)C(O)C(C)O2)C1)C(=O)c1c(OC)cccc1C3=O` (stereo not given in full), for the setting “dose: 20.0 mg/kg/injection, schedule: Q04DX004 (sc), vehicle: water”, the T/C is 33 % of control.
In the case of `CC(=Nc1ccccc1)C1=C(O)C(Cc2ccccc2)NC1=O` (stereo not given), the T/C was 66 % of control (dose: 75.0 mg/kg/injection, schedule: Q04DX004 (sc), vehicle: saline with Tween-80); 105 % of control (dose: 150.0 mg/kg/injection, schedule: Q04DX004 (sc), vehicle: saline with Tween-80); 43 % of control under setting [9]; 80 % of control under setting [10].
Turning to `CCC(=O)Sc1ccccc1C(=O)Nc1ccc(Cl)cc1`, the T/C reads like this: under setting [9], 122 % of control; under setting [10], 93 % of control; (dose: 1200.0 mg/kg/injection, schedule: Q04DX004 (sc), vehicle: saline with Tween-80) 103 % of control; (dose: 2400.0 mg/kg/injection, schedule: Q04DX004 (sc), vehicle: saline with Tween-80) 91 % of control.
Turning to `COCC1OC2OC3C(COC)OC(OC4C(COC)OC(OC5C(COC)OC(OC6C(COC)OC(OC7C(COC)OC(OC8C(COC)OC(OC1C(O)C2O)C(O)C8O)C(O)C7O)C(O)C6O)C(O)C5O)C(O)C4O)C(O)C3O` (stereo not given) (tested in a mixture with another compound), the T/C by setting is: (dose: 100.0 mg/kg/injection, schedule: Q04DX004 (sc), vehicle: Klucel (hydroxypropylcellulose) (HPC)) 116 % of control; under setting [8], 67 % of control.
Turning to `CC1(C)CC(=O)C(CSC(=O)c2ccccc2)C(=O)C1`, the T/C is, setting by setting: (dose: 25.0 mg/kg/injection, schedule: Q01DX010 (sc), vehicle: Klucel (hydroxypropylcellulose) (HPC)) 79 % of control; (dose: 100.0 mg/kg/injection, schedule: Q01DX010 (sc), vehicle: Klucel (hydroxypropylcellulose) (HPC)) 120 % of control.
For the compound `Nc1ncnc2c1nnn2C1OC(CO)C(O)C1O` (stereo not given), the T/C (dose: 75.0 mg/kg/injection, schedule: Q04DX004 (sc), vehicle: Klucel (hydroxypropylcellulose) (HPC)) is 41 % of control.
`Ic1ncnc2c1ncn2C1CCCO1` (stereo not given): the T/C is 55 % of control (dose: 300.0 mg/kg/injection, schedule: Q04DX004 (sc), vehicle: Klucel (hydroxypropylcellulose) (HPC)); 112 % of control (dose: 600.0 mg/kg/injection, schedule: Q04DX004 (sc), vehicle: Klucel (hydroxypropylcellulose) (HPC)); 72 % of control (dose: 2400.0 mg/kg/injection, schedule: Q04DX004 (sc), vehicle: Klucel (hydroxypropylcellulose) (HPC)).

These data come from PubChem BioAssay AID206 (DTP/NCI, 2004).
